{
  "source": "BindingDB's records for doi:10.1016/j.bioorg.2015.11.006",
  "about": "(Universiti Teknologi Mara (Uitm), 2016)",
  "data": [
    {"biological_target": "Alpha-glucosidase MAL12 (Saccharomyces cerevisiae (strain ATCC 204508 / S288c), UniProt P53341)", "sequence (P53341 whole entry)": "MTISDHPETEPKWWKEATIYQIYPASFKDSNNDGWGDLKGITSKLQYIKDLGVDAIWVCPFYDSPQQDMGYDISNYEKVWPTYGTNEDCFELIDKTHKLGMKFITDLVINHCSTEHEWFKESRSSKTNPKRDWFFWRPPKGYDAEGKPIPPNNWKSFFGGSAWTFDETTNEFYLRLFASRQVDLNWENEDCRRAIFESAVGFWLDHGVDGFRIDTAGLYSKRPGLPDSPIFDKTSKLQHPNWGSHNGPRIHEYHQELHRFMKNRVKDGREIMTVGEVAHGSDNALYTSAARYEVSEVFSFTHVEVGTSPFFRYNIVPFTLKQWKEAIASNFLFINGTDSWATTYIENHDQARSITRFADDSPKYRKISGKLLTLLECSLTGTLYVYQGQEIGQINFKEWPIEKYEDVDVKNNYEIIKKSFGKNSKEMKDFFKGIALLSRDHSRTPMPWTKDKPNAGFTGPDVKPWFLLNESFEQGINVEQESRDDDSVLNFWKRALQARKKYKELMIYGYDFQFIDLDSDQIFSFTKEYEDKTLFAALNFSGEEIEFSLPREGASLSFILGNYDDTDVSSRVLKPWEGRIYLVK", "experiment": "Baker's Yeast α-Glucosidase Inhibition Assay", "conditions": "pH 6.8", "experimental": "The enzyme inhibition was evaluated according to the method previously reported by Rahim et al. [25] with slight modification. Various concentration of test compounds (10 µL) were dissolved in DMSO (ranging from 200 to 6.25 µg/mL) and premixed with 95 µL of 50 mM phosphate buffer (pH 6.8). Then, 25 µL of enzyme(0.0625 U/mL) in phosphate buffer saline was added into each well and the plate was incubated at 37 °C for 10 min. Afterward, 25 µl of PNPG in phosphate buffer saline (5 mM) were added and pre-read of the plate was taken by using a microplate reader (Spectrostar Nano BMG Labtech, Germany). The reaction mixture was then incubated at 37 °C for 30 min and change in absorbance at 405 nm was monitored up to 30 min. For negative control, the test samples were replaced with 10 µL of DMSO and acarbose was used as positive control", "units": {"IC50": "µM"}, "values": [
      {"smiles": "COc1ccc(/C=N/NC(=O)c2ccc(-c3nc4cc(C)c(C)cc4[nH]3)cc2)c(O)c1", "note": "[(E)-4-(5,6-dimethyl-1H-benzo[d]imidazol-2-yl)-N'-(2-hydroxy-4-methoxybenzylidene) benzohydrazide (10)]", "IC50": 8.44},
      {"smiles": "Cc1cc2nc(-c3ccc(C(=O)N/N=C/c4ccccc4O)cc3)[nH]c2cc1C", "note": "[(E)-4-(5,6-dimethyl-1H-benzo[d]imidazol-2-yl)-N'-(2-hydroxybenzylidene) benzohydrazide (15)]", "IC50": 18.2},
      {"smiles": "Cc1cc2nc(-c3ccc(C(=O)N/N=C/c4ccccc4C)cc3)[nH]c2cc1C", "note": "[(E)-4-(5,6-dimethyl-1H-benzo[d]imidazol-2-yl)-N'-(2-methylbenzylidene) benzohydrazide (13)]", "IC50": 24.8},
      {"smiles": "Cc1cc2nc(-c3ccc(C(=O)N/N=C/c4cc(O)c(O)c(O)c4)cc3)[nH]c2cc1C", "note": "[(E)-4-(5,6-dimethyl-1H-benzo[d]imidazol-2-yl)-N'-(3,4,5-trihydroxybenzylidene) benzohydrazide (19)]", "IC50": 8.4},
      {"smiles": "Cc1cc2nc(-c3ccc(C(=O)N/N=C/c4cccc(F)c4)cc3)[nH]c2cc1C", "note": "[(E)-4-(5,6-dimethyl-1H-benzo[d]imidazol-2-yl)-N'-(3-fluorobenzylidene) benzohydrazide (26)]", "IC50": 158},
      {"smiles": "COc1ccc(/C=N/NC(=O)c2ccc(-c3nc4cc(C)c(C)cc4[nH]3)cc2)cc1O", "note": "[(E)-4-(5,6-dimethyl-1H-benzo[d]imidazol-2-yl)-N'-(3-hydroxy-4-methoxybenzylidene) benzohydrazide (9)]", "IC50": 29},
      {"smiles": "Cc1cc2nc(-c3ccc(C(=O)N/N=C/c4cccc(O)c4)cc3)[nH]c2cc1C", "note": "[(E)-4-(5,6-dimethyl-1H-benzo[d]imidazol-2-yl)-N'-(3-hydroxybenzylidene) benzohydrazide (2)]", "IC50": 32.5},
      {"smiles": "COc1cccc(/C=N/NC(=O)c2ccc(-c3nc4cc(C)c(C)cc4[nH]3)cc2)c1", "note": "[(E)-4-(5,6-dimethyl-1H-benzo[d]imidazol-2-yl)-N'-(3-methoxybenzylidene) benzohydrazide (24)]", "IC50": 15.1},
      {"smiles": "Cc1cccc(/C=N/NC(=O)c2ccc(-c3nc4cc(C)c(C)cc4[nH]3)cc2)c1", "note": "[(E)-4-(5,6-dimethyl-1H-benzo[d]imidazol-2-yl)-N'-(3-methylbenzylidene) benzohydrazide (14)]", "IC50": 23.5},
      {"smiles": "Cc1cc2nc(-c3ccc(C(=O)N/N=C/c4ccc(O)cc4)cc3)[nH]c2cc1C", "note": "[(E)-4-(5,6-dimethyl-1H-benzo[d]imidazol-2-yl)-N'-(4-hydroxybenzylidene) benzohydrazide (1)]", "IC50": 26},
      {"smiles": "COc1ccc(/C=N/NC(=O)c2ccc(-c3nc4cc(C)c(C)cc4[nH]3)cc2)cc1", "note": "[(E)-4-(5,6-dimethyl-1H-benzo[d]imidazol-2-yl)-N'-(4-methoxybenzylidene) benzohydrazide (20)]", "IC50": 32.6},
      {"smiles": "Cc1ccc(/C=N/NC(=O)c2ccc(-c3nc4cc(C)c(C)cc4[nH]3)cc2)cc1", "note": "[(E)-4-(5,6-dimethyl-1H-benzo[d]imidazol-2-yl)-N'-(4-methylbenzylidene) benzohydrazide (16)]", "IC50": 18.3},
      {"smiles": "Cc1cc2nc(-c3ccc(C(=O)N/N=C/c4ccc([N+](=O)[O-])cc4)cc3)[nH]c2cc1C", "note": "[(E)-4-(5,6-dimethyl-1H-benzo[d]imidazol-2-yl)-N'-(4-nitrobenzylidene) benzohydrazide (25)]", "IC50": 19.3},
      {"smiles": "Cc1cc2nc(-c3ccc(C(=O)N/N=C/c4ccco4)cc3)[nH]c2cc1C", "note": "[(E)-4-(5,6-dimethyl-1H-benzo[d]imidazol-2-yl)-N'-(furan-2-ylmethylene) benzohydrazide (21)]", "IC50": 32.1},
      {"smiles": "Cc1cc2nc(-c3ccc(C(=O)N/N=C/c4ccccn4)cc3)[nH]c2cc1C", "note": "[(E)-4-(5,6-dimethyl-1H-benzo[d]imidazol-2-yl)-N'-(pyridin-2-ylmethylene) benzohydrazide (18)]", "IC50": 25.7},
      {"smiles": "Cc1cc2nc(-c3ccc(C(=O)N/N=C/c4cccnc4)cc3)[nH]c2cc1C", "note": "[(E)-4-(5,6-dimethyl-1H-benzo[d]imidazol-2-yl)-N'-(pyridin-3-ylmethylene) benzohydrazide (23)]", "IC50": 46},
      {"smiles": "Cc1cc2nc(-c3ccc(C(=O)N/N=C/c4ccncc4)cc3)[nH]c2cc1C", "note": "[(E)-4-(5,6-dimethyl-1H-benzo[d]imidazol-2-yl)-N'-(pyridin-4-ylmethylene) benzohydrazide (11)]", "IC50": 148},
      {"smiles": "COc1ccc(O)c(/C=N/NC(=O)c2ccc(-c3nc4cc(C)c(C)cc4[nH]3)cc2)c1", "note": "[(E)-4-(5,6-dimethyl-1H-benzo[d]imidazol-2-yl)-N'-(pyridin-4-ylmethylene) benzohydrazide (12)]", "IC50": 8.44},
      {"smiles": "Cc1cc2nc(-c3ccc(C(=O)N/N=C/c4cccc(O)c4O)cc3)[nH]c2cc1C", "note": "[(E)-N'-(2,3-dihydroxybenzylidene)-4-(5,6-dimethyl-1H-benzo[d]imidazol-2-yl)benzohydrazide (5)]", "IC50": 9.99},
      {"smiles": "Cc1cc2nc(-c3ccc(C(=O)N/N=C/c4ccc(O)cc4O)cc3)[nH]c2cc1C", "note": "[(E)-N'-(2,4-dihydroxybenzylidene)-4-(5,6-dimethyl-1H-benzo[d]imidazol-2-yl) benzohydrazide (6)]", "IC50": 8.74},
      {"smiles": "Cc1cc2nc(-c3ccc(C(=O)N/N=C/c4cc(O)ccc4O)cc3)[nH]c2cc1C", "note": "[(E)-N'-(2,5-dihydroxybenzylidene)-4-(5,6-dimethyl-1H-benzo[d]imidazol-2-yl) benzohydrazide (4)]", "IC50": 8.74},
      {"smiles": "Cc1cc2nc(-c3ccc(C(=O)N/N=C/c4ccc(O)c(O)c4)cc3)[nH]c2cc1C", "note": "[(E)-N'-(3,4-dihydroxybenzylidene)-4-(5,6-dimethyl-1H-benzo[d]imidazol-2-yl) benzohydrazide (7)]", "IC50": 12.5},
      {"smiles": "COc1ccc(/C=N/NC(=O)c2ccc(-c3nc4cc(C)c(C)cc4[nH]3)cc2)cc1OC", "note": "[(E)-N'-(3,4-dimethoxybenzylidene)-4-(5,6-dimethyl-1H-benzo[d]imidazol-2-yl)benzohydrazide (3)]", "IC50": 180},
      {"smiles": "Cc1cc2nc(-c3ccc(C(=O)N/N=C/c4ccc(O)c(Br)c4)cc3)[nH]c2cc1C", "note": "[(E)-N'-(3-bromo-4-hydroxybenzylidene)-4-(5,6-dimethyl-1H-benzo[d]imidazol-2-yl)benzohydrazide (17)]", "IC50": 34.5},
      {"smiles": "Cc1cc2nc(-c3ccc(C(=O)N/N=C/c4cccc(Cl)c4)cc3)[nH]c2cc1C", "note": "[(E)-N'-(3-chlorobenzylidene)-4-(5,6-dimethyl-1H-benzo[d]imidazol-2-yl) benzohydrazide (8)]", "IC50": 22.4},
      {"smiles": "Cc1cc2nc(-c3ccc(C(=O)N/N=C\\c4ccc(Cl)cc4)cc3)[nH]c2cc1C", "note": "[(Z)-N'-(4-chlorobenzylidene)-4-(5,6-dimethyl-1H-benzo[d]imidazol-2-yl)benzohydrazide (22)]", "IC50": 24.8}
    ]}
  ]
}
